Experimental findings from patent US20240269139A1, “COMPOUNDS FOR TARGETED PROTEIN DEGRADATION OF KINASES” (DANA-FARBER CANCER INSTITUTE, INC., priority 2020, published 2024) are described below.

Where two headings read alike, the source gives them in different places.

Assay [1] has as its target protein kinases (human kinome) (Homo sapiens, UniProt Q14289). The format is cell-based. Conditions: for logFC: PTK2B (Q14289-1) protein abundance, degrader vs DMSO, down.
The target of assay [2] is extended human kinome (kinase-like proteins) (Homo sapiens, UniProt Q16875). Put plainly: Whole cell quantitative proteomics: extended kinome hits. The conditions noted are these: Accession Q16875.
Assay [3] deals with T1, extended human kinome (kinase-like proteins) (Homo sapiens, UniProt Q53R41).
T1 sequence (Q53R41 1-847): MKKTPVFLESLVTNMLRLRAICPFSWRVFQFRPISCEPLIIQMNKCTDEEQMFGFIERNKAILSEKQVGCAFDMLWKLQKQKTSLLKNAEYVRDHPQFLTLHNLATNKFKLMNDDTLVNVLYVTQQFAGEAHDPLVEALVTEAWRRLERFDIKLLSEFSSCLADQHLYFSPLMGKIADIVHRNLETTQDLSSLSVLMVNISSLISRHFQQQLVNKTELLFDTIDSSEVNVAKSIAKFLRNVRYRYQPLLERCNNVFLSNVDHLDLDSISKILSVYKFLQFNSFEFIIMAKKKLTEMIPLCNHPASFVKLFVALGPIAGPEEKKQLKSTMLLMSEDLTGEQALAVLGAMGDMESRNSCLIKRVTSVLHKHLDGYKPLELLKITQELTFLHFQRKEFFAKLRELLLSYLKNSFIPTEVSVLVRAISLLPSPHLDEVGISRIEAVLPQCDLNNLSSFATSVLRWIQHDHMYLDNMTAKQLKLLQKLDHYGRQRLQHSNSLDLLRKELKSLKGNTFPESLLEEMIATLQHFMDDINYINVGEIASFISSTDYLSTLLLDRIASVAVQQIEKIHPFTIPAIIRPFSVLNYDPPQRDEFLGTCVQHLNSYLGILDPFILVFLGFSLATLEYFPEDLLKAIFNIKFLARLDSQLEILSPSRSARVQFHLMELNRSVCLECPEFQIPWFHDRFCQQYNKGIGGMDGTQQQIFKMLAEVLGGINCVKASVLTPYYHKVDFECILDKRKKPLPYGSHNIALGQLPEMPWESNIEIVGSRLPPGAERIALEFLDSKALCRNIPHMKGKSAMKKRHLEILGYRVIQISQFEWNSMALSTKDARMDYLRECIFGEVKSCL
Described as above.

Assay [4] concerns the target T2, extended human kinome (kinase-like proteins) (Homo sapiens, UniProt Q7L8L6).
T2 sequence (Q7L8L6 28-764): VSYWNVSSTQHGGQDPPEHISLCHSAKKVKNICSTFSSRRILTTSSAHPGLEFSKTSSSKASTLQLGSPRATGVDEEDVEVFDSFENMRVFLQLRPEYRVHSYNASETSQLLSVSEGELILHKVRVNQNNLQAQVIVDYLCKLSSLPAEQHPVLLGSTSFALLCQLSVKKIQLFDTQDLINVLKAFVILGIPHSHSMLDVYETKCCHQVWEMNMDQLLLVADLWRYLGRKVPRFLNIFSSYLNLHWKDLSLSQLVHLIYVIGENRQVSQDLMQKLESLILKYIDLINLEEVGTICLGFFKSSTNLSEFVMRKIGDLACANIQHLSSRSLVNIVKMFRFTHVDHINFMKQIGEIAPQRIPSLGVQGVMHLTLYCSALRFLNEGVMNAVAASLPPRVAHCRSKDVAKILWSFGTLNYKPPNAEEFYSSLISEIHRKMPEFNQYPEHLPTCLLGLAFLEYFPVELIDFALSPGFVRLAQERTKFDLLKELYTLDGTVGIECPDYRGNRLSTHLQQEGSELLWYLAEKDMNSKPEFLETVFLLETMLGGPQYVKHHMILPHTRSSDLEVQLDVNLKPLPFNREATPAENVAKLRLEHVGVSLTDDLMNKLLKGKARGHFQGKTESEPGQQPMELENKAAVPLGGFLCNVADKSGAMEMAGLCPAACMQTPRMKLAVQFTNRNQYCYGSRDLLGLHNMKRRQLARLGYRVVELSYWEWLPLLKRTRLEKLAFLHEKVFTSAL
The assay is described as above. The conditions noted are these: Accession Q7L8L6.

Assay [5] addresses extended human kinome (kinase-like proteins) (Homo sapiens, UniProt P27144). Described as above.
In assay [6] the target is extended human kinome (kinase-like proteins) (Homo sapiens, UniProt Q9UIJ7). The description is as above.
Setting [7] is: accession Q14289-1, experiment wp016, direction of change down.
The mark [8] stands for this setting: accession Q14289-1, experiment wp045, direction of change down.
Setting [9] is: accession Q14289-1, experiment wp146, direction of change down.

extended human kinome (kinase-like proteins) (Homo sapiens, UniProt Q16875), sequence (Q16875 whole entry): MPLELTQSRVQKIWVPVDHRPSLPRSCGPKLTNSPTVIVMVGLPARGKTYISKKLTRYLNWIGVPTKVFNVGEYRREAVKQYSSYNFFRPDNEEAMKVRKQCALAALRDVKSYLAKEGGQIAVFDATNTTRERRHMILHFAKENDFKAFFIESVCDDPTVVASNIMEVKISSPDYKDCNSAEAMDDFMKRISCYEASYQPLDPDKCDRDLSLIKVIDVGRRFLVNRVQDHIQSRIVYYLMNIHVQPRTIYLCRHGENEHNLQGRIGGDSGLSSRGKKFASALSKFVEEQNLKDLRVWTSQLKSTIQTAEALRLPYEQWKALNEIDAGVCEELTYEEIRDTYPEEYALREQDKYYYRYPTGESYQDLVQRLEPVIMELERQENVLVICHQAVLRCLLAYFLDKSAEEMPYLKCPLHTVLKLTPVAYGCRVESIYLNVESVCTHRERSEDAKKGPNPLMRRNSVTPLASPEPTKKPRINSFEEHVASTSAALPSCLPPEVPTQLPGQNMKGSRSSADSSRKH
protein kinases (human kinome), sequence (Q14289 whole entry): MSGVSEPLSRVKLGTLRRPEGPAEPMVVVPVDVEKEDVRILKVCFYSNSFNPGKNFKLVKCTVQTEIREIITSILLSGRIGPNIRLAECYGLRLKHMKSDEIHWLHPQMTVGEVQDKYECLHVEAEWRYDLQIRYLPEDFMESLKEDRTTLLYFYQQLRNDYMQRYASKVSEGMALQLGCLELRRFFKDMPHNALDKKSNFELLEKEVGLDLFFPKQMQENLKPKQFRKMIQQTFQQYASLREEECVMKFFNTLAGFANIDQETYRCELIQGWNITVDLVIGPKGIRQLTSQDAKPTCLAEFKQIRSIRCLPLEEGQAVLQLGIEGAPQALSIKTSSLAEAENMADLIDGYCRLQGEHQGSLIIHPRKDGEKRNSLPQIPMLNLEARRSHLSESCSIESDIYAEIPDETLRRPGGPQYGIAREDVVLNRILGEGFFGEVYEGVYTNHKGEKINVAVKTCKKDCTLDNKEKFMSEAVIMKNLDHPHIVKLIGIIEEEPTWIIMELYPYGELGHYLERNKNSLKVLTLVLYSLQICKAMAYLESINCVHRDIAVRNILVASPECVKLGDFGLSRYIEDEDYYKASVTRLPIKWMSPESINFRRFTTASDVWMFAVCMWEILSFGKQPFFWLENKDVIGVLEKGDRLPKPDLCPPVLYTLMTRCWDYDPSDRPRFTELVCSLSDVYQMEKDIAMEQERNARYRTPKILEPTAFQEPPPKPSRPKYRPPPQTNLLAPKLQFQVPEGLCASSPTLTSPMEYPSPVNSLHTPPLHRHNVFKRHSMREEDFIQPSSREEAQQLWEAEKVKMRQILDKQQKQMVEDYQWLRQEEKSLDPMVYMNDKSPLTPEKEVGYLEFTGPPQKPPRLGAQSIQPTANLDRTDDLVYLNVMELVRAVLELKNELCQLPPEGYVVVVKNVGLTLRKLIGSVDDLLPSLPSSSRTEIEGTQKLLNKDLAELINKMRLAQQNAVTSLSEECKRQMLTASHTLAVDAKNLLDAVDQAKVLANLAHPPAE
extended human kinome (kinase-like proteins) (Homo sapiens, UniProt Q9UIJ7), sequence (Q9UIJ7 whole entry): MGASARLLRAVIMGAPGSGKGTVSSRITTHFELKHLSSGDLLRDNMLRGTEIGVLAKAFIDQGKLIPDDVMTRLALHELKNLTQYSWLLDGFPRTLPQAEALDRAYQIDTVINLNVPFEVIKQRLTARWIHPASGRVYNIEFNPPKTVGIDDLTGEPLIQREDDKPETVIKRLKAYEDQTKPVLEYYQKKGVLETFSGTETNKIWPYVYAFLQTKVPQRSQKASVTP
extended human kinome (kinase-like proteins) (Homo sapiens, UniProt P27144), sequence (P27144 whole entry): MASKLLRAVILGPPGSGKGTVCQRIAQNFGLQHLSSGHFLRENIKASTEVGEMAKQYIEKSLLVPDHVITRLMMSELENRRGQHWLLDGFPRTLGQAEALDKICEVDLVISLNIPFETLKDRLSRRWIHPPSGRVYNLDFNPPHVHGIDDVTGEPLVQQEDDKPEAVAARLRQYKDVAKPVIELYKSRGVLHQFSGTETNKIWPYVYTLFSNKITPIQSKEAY

In assay [1], `CC(C)S(=O)(=O)c1ccccc1Nc1nc(Nc2ccc(N3CCN(CCOCCOCCNC(=O)CNc4cccc5c4C(=O)N(C4CCC(=O)NC4=O)C5=O)CC3)cc2)ncc1Cl` (centres unmarked) [TL12.186] yielded a logFC of −3.722. Also, the “logFC PTK2B” value in assay [1] (setting [7]) is −3.722. The entries for the “logFC PFKFB3” value in assay [2] (experiment wp131) and in assay [2] (experiment wp137) were −0.5643 and −0.4067, respectively. Besides, the “logFC FASTKD1 (Q53R41)” value in assay [3] (experiment wp137) is listed as −0.3731. In addition, in assay [4] (experiment wp137), the “logFC FASTKD5” value is on record as −0.3409.
Regarding `CS(=O)(=O)Nc1cccc(-c2csc3cnc(Nc4ccc(N5CCN(CCCCCOc6cccc7c6C(=O)N(C6CCC(=O)NC6=O)C7=O)CC5)cc4)nc23)c1` (centres unmarked) [DB0614, N-(3-(2-((4-(4-(5-((2-(2,6-Dioxopiperidin-3-yl)-1,3-dioxoisoindolin-4-yl)oxy)pentyl)piperazin-1-yl)phenyl)amino)thieno[3,2-d]pyrimidin-7-yl)phenyl)methanesulfonamide], in assay [1], the logFC is given as −1.425. In addition, the “logFC PTK2B” value in assay [1] (setting [8]) is on record as −1.425.
As for `Cc1ccc(NC(=O)c2cccc(C(F)(F)F)c2)cc1N1Cc2cnc(Nc3ccc(N4CCN(CCCCC(=O)N[C@H](C(=O)N5C[C@H](O)C[C@H]5C(=O)N[C@@H](C)c5ccc(-c6scnc6C)cc5)C(C)(C)C)CC4)nc3)nc2N(C)C1=O` [DB1113], the “logFC PFKFB3” value in assay [2] (experiment wp168) is given as −0.3724.
In assay [1], `Cc1cc(Nc2ncc(Br)c(Nc3cccc(F)c3C(N)=O)n2)ccc1S(=O)(=O)NCCOCCOCCOCCOCCNc1cccc2c1C(=O)N(C1CCC(=O)NC1=O)C2=O` (centres unmarked) [TMX.02.174] had a logFC of −1.512. Further, the “logFC PTK2B” value in assay [1] (setting [9]) is −1.512.
As to `Cc1ccc(NC(=O)c2cccc(C(F)(F)F)c2)cc1N1Cc2cnc(Nc3ccc(N4CCN(Cc5cn(CCCCCOc6cccc7c6C(=O)N(C6CCC(=O)NC6=O)C7=O)nn5)CC4)nc3)nc2N(C)C1=O` (centres unmarked) [DB0646, N-(3-(7-((6-(4-((1-(5-((2-(2,6-Dioxopiperidin-3-yl)-1,3-dioxoisoindolin-4-yl)oxy)pentyl)-1H-1,2,3-triazol-4-yl)methyl)piperazin-1-v)pyridin-3-yl)amino)-1-methyl-2-oxo-1,4-dihydropyrimido[4,5-d]pyrimidin-3(2H)-yl)-4-methylphenyl)-3-(trifluoromethyl)benzamide], in assay [1] (Experiment wp152, direction of change down), the “logFC PTK2B (Q14289)” value is on record as −2.998. In addition, the logFC in assay [1] (1 hr) is on record as −0.3955; in assay [1] (2 hr) it was −1.235; in assay [1] (4 hr), −2.341; in assay [1] (8 hr), −2.599. Besides, the “logFC PTK2B” value is −2.774 in assay [1] (setting [8]); −1.358 in assay [1] (accession Q14289-1, experiment wp114, direction of change down); −0.3955 in assay [1] (accession Q14289-1, experiment wp160, 1 hr, direction of change down); −1.235 in assay [1] (accession Q14289-1, experiment wp160, 2 hr, direction of change down); −2.341 in assay [1] (accession Q14289-1, experiment wp160, 4 hr, direction of change down); −2.599 in assay [1] (accession Q14289-1, experiment wp160, 8 hr, direction of change down). Further, in assay [1] (accession Q14289, experiment wp152, direction of change down), the “logFC PTK2B” value is reported as −2.998. Moreover, the “logFC PFKFB3” value in assay [2] (experiment wp045) is −0.5182; in assay [2] (experiment wp160, 8 hr) it was −0.3754.
Molecule `Cc1ccc(NC(=O)c2cccc(C(F)(F)F)c2)cc1N1Cc2cnc(Nc3ccc(N4CCN(CCCCCCOc5cccc6c5C(=O)N(C5CCC(=O)NC5=O)C6=O)CC4)nc3)nc2N(C)C1=O` (centres unmarked) [DB0663] gave a logFC in assay [1] of −1.961. Further, the “logFC PTK2B” value in assay [1] (setting [8]) was −1.961. Besides, in assay [2] (experiment wp045), the “logFC PFKFB3” value was −0.4221.
As for `NC(=O)c1c(F)cccc1Nc1nc(Nc2ccc(S(=O)(=O)NCCOCCOCCOCCOCCNc3cccc4c3C(=O)N(C3CCC(=O)NC3=O)C4=O)cc2)ncc1Br` (centres unmarked) [TMX.02.138], in assay [1], the logFC was −1.24. Besides, the “logFC PTK2B” value in assay [1] (setting [9]) is listed as −1.24.
Consider `CS(=O)(=O)Nc1cccc(-c2csc3cnc(Nc4ccc(N5CCN(CCOCCOCCOc6cccc7c6C(=O)N(C6CCC(=O)NC6=O)C7=O)CC5)cc4)nc23)c1` (centres unmarked) [RSS0628], for which the logFC in assay [1] is given as −1.517. The “logFC PTK2B” value in assay [1] (setting [8]) was −1.517.
`Cc1ccc(NC(=O)c2cccc(C(F)(F)F)c2)cc1N1Cc2cnc(Nc3ccc(N4CCN(CCCOc5cccc6c5C(=O)N(C5CCC(=O)NC5=O)C6=O)CC4)nc3)nc2N(C)C1=O` (centres unmarked) [DB0662]: the “logFC PFKFB3” value in assay [2] (experiment wp168) is recorded as −0.4517.
In turn, `CC(C)S(=O)(=O)c1ccccc1Nc1nc(Nc2ccc(N3CCN(CCOCCNC(=O)CNc4ccc5c(c4)C(=O)N(C4CCC(=O)NC4=O)C5=O)CC3)cc2)ncc1Cl` (centres unmarked) [SK.3.93] came in with a logFC in assay [1] of −3.269. The “logFC PTK2B” value in assay [1] (setting [7]) is −3.269.
For `Cc1ccc(C(=O)Nc2ccc(CN3CCN(CCCOCCOCCOCCNC(=O)COc4cccc5c4C(=O)N(C4CCC(=O)NC4=O)C5=O)CC3)c(C(F)(F)F)c2)cc1C#Cc1cnc2cccnn12` (centres unmarked) [SB1.G.187], the “logFC AK4 (P27144)” value in assay [5] (experiment wp056) is −0.4478. In assay [3] (Accession Q53R41, experiment wp056), the “logFC FASTKD1” value is listed as −0.4811. The “logFC FASTKD5” value in assay [4] (experiment wp056) is given as −0.4238.
Regarding `C=CCn1c(=O)c2cnc(Nc3ccc(N4CCN(CCCNc5cccc6c5C(=O)N(C5CCC(=O)NC5=O)C6=O)CC4)cc3)nc2n1-c1cccc(C(C)(C)O)n1` (centres unmarked) [ZNL.02.096], the “logFC PFKFB3” value in assay [2] (experiment wp118) is −0.4051. For the same molecule, the “logFC FASTKD1 (Q53R41)” value is given as −0.4079 in assay [3] (experiment wp056) and −0.4559 in assay [3] (experiment wp118). The “logFC FASTKD5” value in assay [4] (experiment wp118) was −0.4552.
Consider `Cc1cnc(Nc2ccc(N3CCN(CCOCCOCCNC(=O)COc4cccc5c4C(=O)N(C4CCC(=O)NC4=O)C5=O)CC3)cc2)nc1Nc1cccc(S(=O)(=O)NC(C)(C)C)c1` (centres unmarked) [JWG.118], for which, in assay [5] (experiment wp071), the “logFC AK4 (P27144)” value was −0.5314. Further, the “logFC AK3 (Q9UIJ7-1)” value in assay [6] (experiment wp071) is −0.4221.
In assay [1], `CNC(=O)c1ccccc1Nc1cc(Nc2ccc(N3CCN(CCOCCOCCNC(=O)CNc4cccc5c4C(=O)N(C4CCC(=O)NC4=O)C5=O)CC3)cc2OC)ncc1C(F)(F)F` (centres unmarked) [MFH.5.103.1] returned a logFC of −3.18. Also, in assay [1] (accession Q14289-1, experiment wp076, direction of change down), the “logFC PTK2B” value is reported as −3.18. For the same molecule, in assay [4] (experiment wp076), the “logFC FASTKD5” value was −0.3493. For the same molecule, the “logFC AK3 (Q9UIJ7-1)” value in assay [6] (experiment wp076) is recorded as −0.431.
With `CC(C)S(=O)(=O)c1ccccc1Nc1nc(Nc2ccc(N3CCN(CCOCCOCCC(=O)NCCNc4cccc5c4CN(C4CCC(=O)NC4=O)C5=O)CC3)cc2)ncc1Cl` (centres unmarked) [TL13.97], in assay [3] (experiment wp137), the “logFC FASTKD1 (Q53R41)” value is given as −0.3684.
Consider `Cn1c(=O)c(-c2c(Cl)cccc2Cl)cc2cnc(Nc3ccc(OCCNC(=O)CCCCCCNC(=O)COc4cccc5c4C(=O)N(C4CCC(=O)NC4=O)C5=O)cc3)nc21` (centres unmarked) [SB1.G.192.1], for which the “logFC FASTKD1 (Q53R41)” value in assay [3] (experiment wp081) is −0.4222.
